This is an account of results in patent publication US5071855A, “Pharmacologically active piperidinylimidazopyridine compounds” (Dompe Farmaceutici SpA, priority 1989, dated 1991).

Structures are written as SMILES. Structures can show the parent of a compound that is named as a salt.

Data set [1] relates to mortality induced by compound 48/80. The data set can be described thus: Mortality inhibition by compound 48/80. The data set is classed as in vivo, Sprague Dawley Nos male rats. The settings on record: ip; rat, i.p., 30 minutes before 2 mg/kg i.v. compound 48/80; observed 4 hours. The protocol: MORTALITY INHIBITION BY COMPOUND 48/80
For evaluating the protection of the mortality induced by compound 48/80 administration the method described by C. J. E. Niemegeers et al. (Arch. Int. Pharmacodyn, 234,164,1978) was followed.
Sprague Dawley Nos male rats (Nossan, Correzzana, Milano) weighing 140 to 150 g, divided into groups of 10 animals each, on an empty stomach for 24 hours with water "ad libitum", were kept in cages with a grid floor, and treated intravenously with 2 mg/kg of compound 48/80 (1 ml/rat).
The animals were kept under observation for 4 hours taking note of their mortality. The results were expressed as the number of animals dead with respect to the number of treated animals. Compounds under examination or the carrier were administered 30 minutes before administration of compound 48/80 by intraperitoneal route, dissolved in H2 O (5 ml/kg) or suspended in 0.5% carboxymethylcellulose. The experimental data were submitted to the variance analysis and to subsequent multiple comparisons according to Dunnet (D. J. Finney, in "Statistical Methods in Biological assay", Ed. L. Griffin and Co. Ltd., pag. 152,1957, Edition Ames Iowa, 1971).

Data set [2] concerns mortality induced by histamine. The data set can be described thus: Effect on the mortality induced by histamine. The settings on record: Cavia porcellus, po; guinea pig, p.o., 60 minutes before 1.25 mg/kg i.v. histamine dihydrochloride; 50% inhibition of mortality; read-out: Mortality induced by hystamine ED50 p.o. In kind it is in vivo, male albino guinea pigs (Dunkin-Hartley). How it is done: EFFECT ON THE MORTALITY INDUCED BY HISTAMINE
The method described by Romer D. et al. (Med. Welt. 17,791,1966) was followed and the tests were carried out on male albino guinea pigs (Dunkin-Hartley), weighing 350 to 450 g which were kept in cages with a grid floor, on an empty stomach for 24 hours with water ad libitum. The compounds under examination have been orally administered to the animals, dissolved in 0.5% carboxymethylcellulose, 60 minutes before intravenous administration of 1.25 mg/kg of histamine dihydrochloride in saline solution. In the control animals, treated with carboxymethylcellulose, the intravenous administration of histamine dihydrochloride induced a 100% mortality.
It has been evaluated ED50, which corresponds to the amount of the compound able inhibit to 50% the mortality induced by histamine: estimation of ED50 has been made applying the `probit` method (Finney D. J. "Statistical method in biological assay", pg 512,1957).

Data set [3] in a line: Evaluation of the lethal dose50 (LD50), acute toxicity. Particulars: in vivo, ip; mouse, 14 days; probit method. How it is done: EVALUATION OF THE LETHAL DOSE50 (LD50)
Swiss Nos (Nossau, Correzzana, Milano) mice, weighing 18 to 20 g each, on an empty stomach for 18 hours with water "ad libitum" and kept in cages with grid floor, were used. The animals, divided into groups of 10 animals each, (5M+5F) were treated intraperitoneally (10 ml/kg) with the compounds under examination dissolved in water or suspended in 0.5% carboxymethyl-cellulose. The animals were kept in the cages and the mortality occurred within the following 6 hours was noted down. At the expiring of the 6 hours the animals were allowed to eat up to the end of the experimentation which lasted 14 days. During this period all the toxic symptoms and the mortality occuring were noted.
The animals which died during the test period and those which were sacrificed at the end of the same, underwent autopsy for a macroscopic examination of their main organs. The experimental data were statistically compared with the X^2 method and LD50 was extrapolated by the `probit` method.

Broadly, the ED50 is the dose that gives a 50% effect, or the effect in half of the subjects. One may read the LD50 as the dose expected to kill half of the subjects tested. A lower LD50 goes with greater toxicity. `CCOCCn1c(C2CCCN(C)C2)nc2cccnc21.O=C(O)/C=C/C(=O)O.O=C(O)/C=C/C(=O)O` (stereo not drawn) [Example 5, 3-(2-Ethoxyethyl)-2-(1-methylpiperidin-3-yl)-3H-imidazo [4,5-b] pyridine difumarate]: the values for the ED50 in data set [1] and in data set [2] were 0.59 mg/kg and 0.05 mg/kg, respectively. In addition, in data set [3], the LD50 at 336 h was less than 100 mg/kg.

`CCOCCn1c(C2CCN(C)CC2)nc2cccnc21` [Example 2, 3-(2-Ethoxyethyl)-2-(1-methylpiperidin-4-yl)-3H-imidazo [4,5-b] pyridine 1.5 fumarate]: the ED50 in data set [1] is 0.34 mg/kg; in data set [2] it was 0.042 mg/kg. In data set [3], this molecule yielded an LD50 at 336 h of 500 mg/kg.

In the case of `CC(C)(C)c1ccc(C(O)CCCN2CCC(C(O)(c3ccccc3)c3ccccc3)CC2)cc1` (stereo not drawn) [Terfenadine, reference compound], the ED50 in data set [1] was 1.99 mg/kg.

On to `CN1CCCC(c2nc3cccnc3n2Cc2ccccc2)C1` (stereo not drawn) [Example 8, 3-Benzyl-2-(1-methylpiperidin-3-yl)-3H-imidazo [4,5-b] pyridine], for which the ED50 in data set [2] was 0.078 mg/kg. In data set [3], this molecule came in with an LD50 at 336 h greater than 100 mg/kg.
